According to article PMC11013998, “Preparation of Peptoid Antifreeze Agents and Their Structure–Property Relationship” (Polymers, 2024):

System: Mouse fibroblasts (L929)
Assay: Cytotoxicity test, Cell Counting Kit-8 (CCK8)
Type: cell-based
Conditions: L929 cells, 10 mg/mL in culture medium, 24 h, CCK-8, OD at 450 nm; non-cytotoxic if higher than 75%; tested at least three times
Procedure: Cytotoxicity testing is a crucial strategy used to test the safety of biological materials. This experiment employed a low-speed centrifuge (SC-3610, Anhui Zhongke Zhongjia scientific Instrument Co., Ltd., Hefei, China), a cell incubator (CCL-170B-8, ESCO, Kuala Lumpur, Singapore) and a multifunctional microplate detector (Synergy H1, Bio-Tek, Winooski, VT, USA). In this test, the cytotoxicity of peptoid oligomers was detected using Cell Counting Kit-8 (CCK8, Finn Biological Co., Ltd., Wuhan, China). Mouse fibroblasts (L929) were cultured and subcultured to ensure that they met the experimental requirements. The old culture medium was removed from the cell dish, and 1 mL trypsin was added to digest the cells. A total of 2 mL of the new culture medium was added to the cell culture dish, and the cells were centrifuged to the bottom of the centrifuge tube. The culture medium was removed. An appropriate amount of new culture medium was added, and the centrifuge tube was shaken gently to disperse the cells evenly. […] Finally, the Optical Density (OD) at 450 nm was measured using a BioTek multifunctional microplate detector. The relative survival rate (σ) could be calculated using the following formula:(1) σ=OD1−OD0/OD2−OD0×100% where OD1 was the average OD of the experimental group, OD2 was the average OD of the negative control group, and OD0 was the average OD of the blank control group. […]

C[S+](C)[O-] [DMSO, dimethyl sulfoxide]
relative cell viability: 61.9%
